Molecules are shown by their SMILES. Counter-ions that a name gives are not always drawn. A value given as a limit tells only on which side of the number the result lay.

The target in experiment [1] is T1, WRN (Homo sapiens, UniProt Q14191).
T1 construct: A His-tagged construct of WRN (AA S2-S1235) was produced and used for the ATPase assay; His tag; made in house; host or cells: Sf9 insect cells (baculovirus, pFastBac1)
The experiment can be described thus: WRN ATPase activity assay (ADP-Glo). The class given is biochemical. Conditions: 1-hr pre-incubation with enzyme; 100 μM ATP, 25 nM forked dsDNA, 1 nM WRN; geometric mean of at least 2 replicates. The method, then: Compounds of the Examples were tested for WRN ATPase activity. WRN ATPase activity catalyzes ATP hydrolysis to produce ADP and phosphate. DNA encoding the target protein, 6×HIS-TEV-WRN-517-945, was produced, cloned and transfected as detailed in Example D. The amount of ADP produced was measured using ADP-Glo™ Kinase Assay kit from Promega Corporation in a Greiner white regular volume 384 wells assay plate (Greiner #781075). Data was normalized to a standard curve generated using various ADP concentrations and the corresponding luminescent signal intensities at each concentration. The assay conditions were optimized for enzyme concentration (WRN), substrate concentrations (ATP & dsDNA), and the linearity of the ATPase reaction, in the following assay buffer: 50 mM Tris-HCl, pH-7.5, 2 mM MgCl2, 50 mM NaCl, 1 mM EGTA, 0.01% P-20, 0.05% BSA, and 2 mM DTT prepared with nuclease free water.
A serial dilution (1:3 scheme) of the compounds were prepared in neat DMSO, with 100 nL of the compounds dispensed in the 384 wells assay plate. An 1-hr pre-incubation of the compounds with enzyme was included. A His-tagged construct of WRN (AA S2-S1235) was produced and used for the ATPase assay. Maximum inhibition control wells were set up with the addition of only assay buffer, and no inhibition control wells were set up with neat DMSO without test compounds. The reaction was initiated by addition of 5 μL substrate mix (200 μM ultrapure ATP, and 50 nM dsDNA prepared in assay buffer) and incubated at 25° C. for 35 min. A forked dsDNA oligomer substrate was prepared by annealing equal amounts of oligo GPat-1 ([BHQ2][…]) and oligo GPat-2 ([…][TAM]) and was used as dsDNA substrate for WRN ATPase assay. A typical ATPase reaction consists of 25 nM forked dsDNA, 100 μM ATP, and 1 nM WRN prepared in assay buffer. The WRN ATPase reaction was stopped by the addition of 5 μL of ADP-Glo Reagent from ADP-Glo™ Kinase Assay kit and incubated for 40 min to deplete the unreacted ATP. Afterwards, 5 μL of Kinase Detection Reagent from the ADP-Glo™ Kinase Assay kit was added and incubated for 1 hr for the development of luminescence signal.
Luminesce signals were measured on BMG PHERAstar FSX using luminescence protocol. Data analysis was carried out using Genedata software following % of control normalization. Fitting parameters include dose response IC50, Hill slope (n), maximum inhibition (S∞), and minimum inhibition (S0). The reported IC50 values for compounds in this invention are the geometric means of at least 2 independent replicates.

The target of experiment [2] is T1, WRN. The experiment can be described thus: WRN helicase activity assay (fluorescence DNA unwinding). Type of experiment: biochemical. Conditions: 1-hr pre-incubation with enzyme; 100 μM ATP, 25 nM forked dsDNA, 1 nM WRN; geometric mean of at least 2 replicates. The procedure: Compounds of the examples were tested for WRN helicase activity. DNA encoding the target protein, 6×HIS-TEV-WRN-517-945, was produced, cloned and transfected as detailed in Example D. To determine the inhibitory properties of the compounds, a 384 wells plate-based Helicase assay was set up to measure the extent of DNA unwinding (Helicase) activity of WRN. The WRN Helicase assay was designed to measure increase in fluorescence signal using a fluorescence based, donor-quencher paired forked dsDNA oligomer substrate (custom synthesis from Sigma-Aldrich) prepared by annealing equal amounts of oligo GPat-1 ([BHQ2][…]) and oligo GPat-2 ([…][TAM]). Continuous measurement of fluorescent signal was used to optimize the buffer conditions, concentration of enzyme (WRN), concentration of substrates (ATP & dsDNA), and the linearity of the Helicase reaction. All solutions were prepared in the following assay buffer: 50 mM Tris-HCl, pH-7.5, 2 mM MgCl2, 50 mM NaCl, 1 mM EGTA, 0.01% P-20, 0.05% BSA, and 2 mM DTT prepared with nuclease free water.
A serial dilution (1:3 scheme) of the compounds was prepared in neat DMSO and 100 nL of the compounds was dispensed in the Greiner black low volume (Greiner #784076) 384 wells assay plate. An 1-hr pre-incubation of the compounds with enzyme was included. A His-tagged construct of WRN (AA S2-S1235) was produced and used for the ATPase assay. Maximum inhibition control wells were set up with the addition of only assay buffer, and no inhibition control wells were set up with neat DMSO without test compounds. The reaction was initiated by addition of 5 μL substrate mix (200 μM ultrapure ATP, and 50 nM dsDNA prepared in assay buffer) and incubated at 25° C. for 35 min. A typical Helicase reaction consists of 25 nM forked dsDNA, 100 μM ATP, and 1 nM WRN prepared in assay buffer. The WRN Helicase reaction was quenched by the addition of 5 μL ‘STOP’ solution containing 100 mM EDTA (final EDTA concentration 33.33 mM) prepared in assay buffer. The plates were read on BMG PHERAstar FSX using 540/590 module to measure an increase of fluorescence. Data analysis was carried out using the Genedata software following % of control normalization. Fitting parameters include dose response IC50, Hill slope (n), maximum inhibition (S∞), and minimum inhibition (S0). The reported IC50 values for compounds in this invention are the geometric means of at least 2 independent replicates.

T1 sequence (Q14191 2-1235): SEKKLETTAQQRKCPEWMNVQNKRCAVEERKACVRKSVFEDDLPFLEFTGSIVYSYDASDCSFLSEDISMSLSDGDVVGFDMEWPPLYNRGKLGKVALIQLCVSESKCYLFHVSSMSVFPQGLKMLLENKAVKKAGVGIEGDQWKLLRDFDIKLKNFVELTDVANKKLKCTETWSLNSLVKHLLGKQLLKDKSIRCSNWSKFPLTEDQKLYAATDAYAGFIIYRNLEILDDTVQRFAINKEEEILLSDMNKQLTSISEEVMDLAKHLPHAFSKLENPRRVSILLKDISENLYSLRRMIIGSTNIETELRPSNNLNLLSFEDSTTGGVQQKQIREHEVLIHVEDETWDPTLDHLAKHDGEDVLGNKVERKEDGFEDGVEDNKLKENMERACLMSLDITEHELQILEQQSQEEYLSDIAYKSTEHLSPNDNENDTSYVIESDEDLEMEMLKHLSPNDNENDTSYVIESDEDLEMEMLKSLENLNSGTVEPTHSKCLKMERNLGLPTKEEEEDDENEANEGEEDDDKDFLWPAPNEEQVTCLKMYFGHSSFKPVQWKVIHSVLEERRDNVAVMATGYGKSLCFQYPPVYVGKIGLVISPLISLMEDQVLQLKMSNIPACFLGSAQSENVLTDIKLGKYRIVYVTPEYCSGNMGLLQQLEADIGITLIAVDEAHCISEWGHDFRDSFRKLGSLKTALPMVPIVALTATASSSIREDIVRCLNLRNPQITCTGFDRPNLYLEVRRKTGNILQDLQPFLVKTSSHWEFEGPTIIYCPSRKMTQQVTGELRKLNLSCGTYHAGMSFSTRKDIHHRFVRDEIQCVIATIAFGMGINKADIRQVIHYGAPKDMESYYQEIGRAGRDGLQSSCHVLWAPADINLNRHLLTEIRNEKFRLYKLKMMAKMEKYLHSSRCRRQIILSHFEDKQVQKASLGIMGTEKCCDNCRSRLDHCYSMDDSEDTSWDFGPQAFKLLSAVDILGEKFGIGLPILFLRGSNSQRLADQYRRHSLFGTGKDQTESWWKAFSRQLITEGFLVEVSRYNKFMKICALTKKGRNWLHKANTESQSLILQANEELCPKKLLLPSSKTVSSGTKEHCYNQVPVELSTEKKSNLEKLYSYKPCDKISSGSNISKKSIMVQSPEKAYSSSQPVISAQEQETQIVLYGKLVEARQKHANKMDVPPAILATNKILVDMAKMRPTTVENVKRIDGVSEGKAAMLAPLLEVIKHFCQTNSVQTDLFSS

One may read the IC50 as the point on the concentration scale where inhibition reaches its midpoint. Read a high IC50 as weaker potency in that assay. For `C=CC(=O)Nc1ccccc1-n1c(CC)nc2c(cnn2CC(=O)Nc2ccc(C(F)(F)F)cc2)c1=O` [Example 1, N-(2-(6-Ethyl-4-oxo-1-(2-oxo-2-((4-(trifluoromethyl)phenyl)amino)ethyl)-1,4-dihydro-5H-pyrazolo[3,4-d]pyrimidin-5-yl)phenyl)acrylamide], the IC50 in experiment [1] and in experiment [2] was 1000 to 5000 nM throughout.

`C=CS(=O)(=O)Nc1ccccc1-n1c(CC)nc2c(cnn2CC(=O)Nc2ccc(C(F)(F)F)cc2)c1=O` [Example 2, 2-(6-Ethyl-4-oxo-5-(2-(vinylsulfonamido)phenyl)-4,5-dihydro-1H-pyrazolo[3,4-d]pyrimidin-1-yl)-N-(4-(trifluoromethyl)phenyl)acetamide]: the IC50 in experiment [1] and in experiment [2] was less than 100 nM throughout.

Take `C=CC(=O)Nc1ccccc1-n1c(CC)nc2c(c(C)c(C)n2CC(=O)Nc2ccc(C(F)(F)F)cc2)c1=O` [Example 3, N-(2-(2-Ethyl-5,6-dimethyl-4-oxo-7-(2-oxo-2-((4-(trifluoromethyl)phenyl)amino)ethyl)-4,7-dihydro-3H-pyrrolo[2,3-d]pyrimidin-3-yl)phenyl)acrylamide]: the IC50 in experiment [1] and in experiment [2] was less than 100 nM throughout.

Regarding `C=CC(=O)Nc1ccccc1-n1c(CC)nc2c(c(C)c(C)n2CC(=O)Nc2ccc(C(F)(F)F)cc2Cl)c1=O` [Example 4, N-(2-(7-(2-((2-Chloro-4-(trifluoromethyl)phenyl)amino)-2-oxoethyl)-2-ethyl-5,6-dimethyl-4-oxo-4,7-dihydro-3H-pyrrolo[2,3-d]pyrimidin-3-yl)phenyl)acrylamide], the IC50 in experiment [1] and in experiment [2] was less than 100 nM in each case.

`C=CC(=O)Nc1ccccc1-n1c(CC)nc2c(c(C)c(C)n2CC(=O)Nc2ccc(F)cc2)c1=O` [Example 5, N-(2-(2-Ethyl-7-(2-((4-fluorophenyl)amino)-2-oxoethyl)-5,6-dimethyl-4-oxo-4,7-dihydro-3H-pyrrolo[2,3-d]pyrimidin-3-yl)phenyl)acrylamide]: the IC50 in experiment [1] and in experiment [2] was less than 100 nM throughout.

`C=CC(=O)Nc1cc(C(=O)NCC)ccc1-n1c(CC)nc2c(c(C)c(C)n2CC(=O)Nc2ccc(C(F)(F)F)cc2)c1=O` [Example 6, 3-Acrylamido-N-ethyl-4-(2-ethyl-5,6-dimethyl-4-oxo-7-(2-oxo-2-((4-(trifluoromethyl)phenyl)amino)ethyl)-4,7-dihydro-3H-pyrrolo[2,3-d]pyrimidin-3-yl)benzamide, trifluoroacetate salt]: the IC50 in experiment [1] and in experiment [2] was less than 100 nM each time.

For the molecule `C=CC(=O)Nc1cc(C(=O)NCC)ccc1-n1c(CC)nc2c(c(C)c(C)n2CC(=O)Nc2ccc(F)cc2)c1=O` [Example 7, 3-Acrylamido-N-ethyl-4-(2-ethyl-7-(2-((4-fluorophenyl)amino)-2-oxoethyl)-5,6-dimethyl-4-oxo-4,7-dihydro-3H-pyrrolo[2,3-d]pyrimidin-3-yl)benzamide, trifluoroacetate salt], the IC50 in experiment [1] and in experiment [2] was less than 100 nM throughout.

For the origin of these results see patent US20250333420A1, “FUSED BICYCLIC PYRIMIDONES AS WRN INHIBITORS” (INCYTE CORPORATION, priority 2023, published 2025).
